Like-named read-outs stand apart in the source and are kept apart here. One block for each substance: values may come before it.
What was measured:
[1] = system: Zein protein; details: stated as known for comparison compounds; cited from earlier work
[2] = Stability of SCMI in aqueous solution (amount of SCMI present over time); assay type: physicochemical; details: 10 wt % aqueous solutions, initial pH 4.5, 5.5, 6.5, 7.5, 8.5 and 9.5, held at 48.9° C., 30 days
Description: In a preliminary test the stability of SCMI in 10 wt % aqueous solutions adjusted to have initial pH values respectively of 4.5, 5.5, 6.5, 7.5, 8.5 and 9.5, each held at 48.9° C. for an extended period of days, were tested for the amount of SCMI present over the test period.
(§1) The pH values were read using a standard electrode pH meter (Fisher Accument XL-25). The electrode was place in the composition (no further dilution) and the pH recorded.

[3] = Simple solubility tests in deionised water; assay type: physicochemical
[4] = system: Zein protein; test: Zein protocol in-vitro skin irritancy test; details: FIG. 3, surfactant solution 2 wt %, 1 hour at 35° C.
Description: (§2) The Zein protocol is an in-vitro test to measure skin irritancy of formulations. The method makes use of the correlation between binding ability of surfactants to proteins and the damage the surfactant causes to the skin. […] Zein protein, an insoluble protein extracted from corn kernel, is used as a model for epidermal protein and the solubility of the Zein protein in surfactant solutions is believed to be a reliable guide for the skin irritancy caused by the surfactant. The test involves establishing the amount of Zein protein which can be solubilised by surfactant. 5 g of Zein protein may be dispersed in 40 cm^3 of surfactant solution (at 2 wt % concentration). The mixture is shaken for 1 hour at 35° C., and immediately centrifuged to remove any non-solubilised Zein. The amount solubilised is estimated from the solution nitrogen content using micro-Kjeldahl method (making allowance for any nitrogen in the compound tested).

[5] = pH stability of SCMI solutions over time; assay type: physicochemical
Description: as §1
In a preliminary test 10 wt % solutions of SCMI, adjusted to have initial pH values respectively of 4.5, 5.5, 6.5, 7.5, 8.5 and 9.5, each held at 48.9° C. for an extended period of days, were tested for their pH stability over the extended period. The pH testing was as described above.

[6] = system: Zein protein
Description: as §2

Substance: sodium cocoyl isethionate [SCI]
- skin irritancy, known [1]: low irritancy

- percentage of SCMI present, Day 0 to Day 30 [2]: does not change
- appearance of 10 wt % in deionised water (solubility test) [3]: clear solution
- pH change of sample held at highest pH value ([5]; 10 wt % solution, initial pH 9.5, 48.9° C., first few days): small pH reduction
- pH values from Day 0 to Day 30 ([5]; 10 wt % solutions, initial pH 4.5 to 9.5, held at 48.9° C., 30 days): substantially unchanged
Substance: sodium cocoylmethylisethionate [SCMI]
- skin irritancy (Zein protocol) [4]: low irritancy

Substance: sodium laureth sulfate [SLES]
- skin irritancy, known [1]: significant irritancy

Substance: sodium lauroylmethylisethionate [SLMI]
- skin irritancy (Zein protocol) [6]: low irritancy
